Tests used:
[1] = system: Escherichia coli ATCC 25922; experiment: Growth inhibition of bacteria; assay type: cell-based; details: Escherichia coli ATCC 25922, at 100 μg/mL
[2] = system: WT S. cerevisiae strain BY4741; experiment: MIC in compound library screening assay, WT yeast; assay type: cell-based; details: WT BY4741, YPD, 30 °C, 24 hours, MIC90
Procedure: The compound library is a combination of synthetic compounds from Enamine (Kyiv, Ukraine) and Life Chemicals Inc. (Burlington, ON, Canada) and natural products from the Institute of Medicinal Biotechnology. We used WT, chs3∆, and fks1∆ yeast strains to screen new antifungal agents. The screening assays were performed in 96-well plates in a final volume of 200 μL. Fresh yeast cells (OD600 = 0.8) were diluted to 10^5 CFU/mL in YPD medium. We added 198 μL of diluted culture and 2 μL of compounds into each well, and the final concentration of compounds was 100 μg/mL with 1% DMSO. The yeast cells were incubated at 30 °C for 24 hours to assess the growth. For the compounds that inhibited the growth of all three yeast strains, they were serially diluted to determine the minimal inhibit concentration (MIC) with the same method. MIC endpoints were defined as the lowest concentration of drugs that cause a 90% decrease in growth compared to the drug-free control (MIC90).

[3] = system: chitin level in C. albicans; experiment: CFW staining of chitin, fluorescence microscopy; assay type: cell-based, Candida albicans; details: IMB-D10 12.5 μg/mL or IMB-F4 25 μg/mL, 5 hours
Procedure: (§1) WT S. cerevisiae and C. albicans ATCC10231 were grown to 10^5 CFU/mL in YPD medium and then treated with IMB-D10 (12.5 or 25 μg/mL), IMB-F4 (12.5 or 25 μg/mL), or 0.25% DMSO for 3 and 5 hours at 30 ℃. Cells were collected by centrifugation at 1500 g for 5 min and resuspended in PBS. Some cells were examined using 100 × / 1.25 oil immersion objective (DM2500, Leica) and analyzed by Leica las. Some cells were stained with 100 μg/mL Calcofluor White M2R (CFW, Sigma-Aldrich, St. Louis, MO, USA for 3 min and washed three times with water. Then, the cells were examined under the UV light for fluorescent signals.

[4] = system: Chs3; experiment: iTRAQ protein level of chitin synthase; assay type: cell-based, S. cerevisiae; details: 25 μg/mL, 16 hours
Chain of Chs3 (P29465 whole entry): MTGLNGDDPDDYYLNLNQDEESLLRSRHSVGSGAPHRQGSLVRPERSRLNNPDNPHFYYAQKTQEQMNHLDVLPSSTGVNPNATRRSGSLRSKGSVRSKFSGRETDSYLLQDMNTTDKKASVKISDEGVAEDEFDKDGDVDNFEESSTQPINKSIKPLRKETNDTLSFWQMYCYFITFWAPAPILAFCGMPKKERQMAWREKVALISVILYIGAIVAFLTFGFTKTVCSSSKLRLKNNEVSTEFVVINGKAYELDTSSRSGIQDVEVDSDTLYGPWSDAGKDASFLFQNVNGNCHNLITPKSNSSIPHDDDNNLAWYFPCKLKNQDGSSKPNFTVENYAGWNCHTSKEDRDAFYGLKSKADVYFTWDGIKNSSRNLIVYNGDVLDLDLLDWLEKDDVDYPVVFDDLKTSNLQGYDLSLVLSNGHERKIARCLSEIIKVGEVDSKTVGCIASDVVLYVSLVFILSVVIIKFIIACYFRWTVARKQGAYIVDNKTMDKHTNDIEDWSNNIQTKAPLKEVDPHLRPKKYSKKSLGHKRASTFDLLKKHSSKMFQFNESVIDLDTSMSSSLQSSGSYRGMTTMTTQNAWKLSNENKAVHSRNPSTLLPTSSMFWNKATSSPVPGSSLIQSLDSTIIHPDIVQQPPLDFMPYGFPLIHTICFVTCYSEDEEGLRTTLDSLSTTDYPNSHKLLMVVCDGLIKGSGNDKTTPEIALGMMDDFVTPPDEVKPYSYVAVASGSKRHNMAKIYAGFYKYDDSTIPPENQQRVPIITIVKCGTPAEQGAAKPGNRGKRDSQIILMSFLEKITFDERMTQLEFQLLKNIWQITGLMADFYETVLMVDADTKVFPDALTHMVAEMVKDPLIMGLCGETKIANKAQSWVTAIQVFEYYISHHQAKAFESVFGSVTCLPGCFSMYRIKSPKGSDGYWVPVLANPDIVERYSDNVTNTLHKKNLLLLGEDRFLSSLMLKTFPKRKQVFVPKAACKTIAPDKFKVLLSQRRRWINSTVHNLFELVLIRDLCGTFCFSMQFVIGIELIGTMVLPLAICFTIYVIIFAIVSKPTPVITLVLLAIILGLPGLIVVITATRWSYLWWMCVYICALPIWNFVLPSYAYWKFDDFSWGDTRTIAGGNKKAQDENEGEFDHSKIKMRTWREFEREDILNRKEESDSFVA
Procedure: (§2) WT cells were grown to 10^5 CFU/mL in YPD medium and then treated with 25 μg/mL compounds or 0.25% DMSO for 16 hours at 30 °C. The cells were collected by centrifugation at 1500 g for 5 min and then stored at −80 °C. The frozen samples were grounded to a fine powder with liquid nitrogen and then transferred to an Eppendorf tube with phenol extraction buffer containing 1 mM Phenylmethanesulfonyl fluoride (PMSF). The samples were lysed with sonication, and proteins were extracted with phenol and then precipitated with ammonium acetate/methanol. The methanol was excluded by acetone, and the precipitates were collected by centrifugation at 12,000 g for 10 min at 4 °C. The precipitates were dried at room temperature for 3 min and dissolved in SDS lysis buffer for 2 hours. The samples were further centrifuged at 12,000 g for 10 min, and the collected supernatants were centrifuged again to remove precipitation completely. After the determination of protein concentration using Pierce^TM BCA Protein Assay kit (Thermo Scientific, Rockford, IL, USA), the protein samples were aliquoted for storage at −80 °C.
(§3) The Filter Aided Sample Preparation (FASP) digestion was performed according to a universal sample preparation method for proteome analysis. Peptides were labeled by iTRAQ using iTRAQ Reagents Multiplex Kit (AB SCIEX, Framingham, MA, USA) and then were fractionated by SCX chromatography using the AKTA Purifier system (GE Healthcare, Stockholm, Sweden). LC-MS/MS analysis was performed on Nano LC-1D plus (Eksigent, San Francisco, CA, USA) that was coupled to Triple TOF 6600 spectrometer (AB SCIEX, Framingham, MA, USA) for 50 min. The mass spectrometer was operated in positive ion mode. The MS/MS data were analyzed for protein identification and quantification using ProteinPilot software (v.5). The local false discovery rate was estimated with the integrated PSPEP tool in the ProteinPilot Software to be 1% after searching against a decoy concatenated UniProt S. cerevisiae protein database. For a protein showing differential expression, it must have been identified and quantified with at least one significant peptide, and the p-values of the proteins quantitation should be less than 0.05 and fold change ≥1.5.

[5] = system: Chs1; experiment: iTRAQ protein level of chitin synthase; assay type: cell-based, S. cerevisiae; details: 25 μg/mL, 16 hours
Chain of Chs1 (P08004 whole entry): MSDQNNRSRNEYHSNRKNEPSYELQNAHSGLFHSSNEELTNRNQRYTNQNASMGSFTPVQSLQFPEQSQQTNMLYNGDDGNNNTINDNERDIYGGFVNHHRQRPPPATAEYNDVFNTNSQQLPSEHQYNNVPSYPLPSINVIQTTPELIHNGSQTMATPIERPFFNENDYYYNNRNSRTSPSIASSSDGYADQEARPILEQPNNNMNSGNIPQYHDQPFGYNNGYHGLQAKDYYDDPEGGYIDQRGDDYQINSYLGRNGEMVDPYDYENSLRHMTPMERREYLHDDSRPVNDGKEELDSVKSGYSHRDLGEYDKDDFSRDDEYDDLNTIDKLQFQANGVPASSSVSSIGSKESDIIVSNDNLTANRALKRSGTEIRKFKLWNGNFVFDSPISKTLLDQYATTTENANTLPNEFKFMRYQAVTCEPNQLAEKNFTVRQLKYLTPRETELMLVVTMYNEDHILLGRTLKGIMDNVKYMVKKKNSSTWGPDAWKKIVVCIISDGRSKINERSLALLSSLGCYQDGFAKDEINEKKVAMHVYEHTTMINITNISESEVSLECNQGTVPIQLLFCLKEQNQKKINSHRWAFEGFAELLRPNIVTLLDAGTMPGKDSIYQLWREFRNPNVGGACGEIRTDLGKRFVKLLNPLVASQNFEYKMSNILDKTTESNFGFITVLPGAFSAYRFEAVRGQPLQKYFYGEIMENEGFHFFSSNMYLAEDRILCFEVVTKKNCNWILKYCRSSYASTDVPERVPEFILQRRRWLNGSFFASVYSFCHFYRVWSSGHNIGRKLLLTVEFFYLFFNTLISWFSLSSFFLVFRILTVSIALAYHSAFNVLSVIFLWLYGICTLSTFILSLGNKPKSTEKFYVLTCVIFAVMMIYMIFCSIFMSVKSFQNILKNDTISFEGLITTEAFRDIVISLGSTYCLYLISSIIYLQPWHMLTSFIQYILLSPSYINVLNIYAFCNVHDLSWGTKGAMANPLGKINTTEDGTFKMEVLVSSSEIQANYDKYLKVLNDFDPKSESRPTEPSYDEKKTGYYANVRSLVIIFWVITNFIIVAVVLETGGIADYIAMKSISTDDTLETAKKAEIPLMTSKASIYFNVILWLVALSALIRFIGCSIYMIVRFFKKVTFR
Procedure: as §2, §3

[6] = system: Chs2; experiment: iTRAQ protein level of chitin synthase; assay type: cell-based, S. cerevisiae; details: 25 μg/mL, 16 hours
Chain of Chs2 (P14180 whole entry): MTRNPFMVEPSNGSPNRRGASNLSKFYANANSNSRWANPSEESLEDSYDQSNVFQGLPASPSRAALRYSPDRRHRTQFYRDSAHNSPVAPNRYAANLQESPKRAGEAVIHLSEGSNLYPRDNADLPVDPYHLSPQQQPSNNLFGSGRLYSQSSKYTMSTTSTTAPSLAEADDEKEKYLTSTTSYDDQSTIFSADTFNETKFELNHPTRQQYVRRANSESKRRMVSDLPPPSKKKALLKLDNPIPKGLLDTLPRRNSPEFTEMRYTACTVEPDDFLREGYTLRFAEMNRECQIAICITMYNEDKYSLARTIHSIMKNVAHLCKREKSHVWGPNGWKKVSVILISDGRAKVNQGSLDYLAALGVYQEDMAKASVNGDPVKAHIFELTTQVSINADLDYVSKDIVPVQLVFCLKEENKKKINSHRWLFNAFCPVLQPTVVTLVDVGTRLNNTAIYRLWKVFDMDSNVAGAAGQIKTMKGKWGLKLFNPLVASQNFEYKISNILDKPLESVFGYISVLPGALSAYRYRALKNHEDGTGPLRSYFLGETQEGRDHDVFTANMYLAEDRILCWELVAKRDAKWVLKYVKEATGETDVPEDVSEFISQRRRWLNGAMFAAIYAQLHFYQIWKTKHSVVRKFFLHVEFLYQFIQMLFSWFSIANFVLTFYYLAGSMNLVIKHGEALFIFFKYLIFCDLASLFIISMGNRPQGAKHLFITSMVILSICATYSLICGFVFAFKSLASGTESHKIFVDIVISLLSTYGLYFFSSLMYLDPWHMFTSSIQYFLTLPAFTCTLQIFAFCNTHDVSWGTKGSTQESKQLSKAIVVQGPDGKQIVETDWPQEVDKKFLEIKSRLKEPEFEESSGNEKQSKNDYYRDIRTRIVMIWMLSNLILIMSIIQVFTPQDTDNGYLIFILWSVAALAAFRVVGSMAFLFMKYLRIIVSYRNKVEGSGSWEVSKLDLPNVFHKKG
Procedure: as §2, §3

[7] = system: chitin content in WT yeast cells; experiment: Chitin content assay (Morgan–Elson method); assay type: cell-based, S. cerevisiae; details: 16 hours at 30 °C
Procedure: The chitin content was assessed by measuring the level of D-glucosamine according to the method described by Morgan–Elson. WT yeast cells were grown to 10^5 CFU/ml in YPD medium and then treated with IMB-D10 (12.5 μg/mL), IMB-F4 (25 μg/mL), or DMSO (0.25%) for 16 hours at 30 °C. Cells were collected by centrifugation at 1500 g for 5 min and then freeze-dried after being washed twice with deionized water. Five-milligram sample was weighted and hydrolyzed by H2SO4 at 100 °C for 4 hours. The hydrolysates were centrifuged at 12,000 rpm for 5 min. We removed 100 μL supernatant to another tube and adjusted pH value to 3 with 2 M KOH; then the volume was set to 1 mL with water. One milliliter acetylacetone (7% acetylacetone in 1 M Na2CO3) was added into the tube and incubated for 25 min at 100 °C. The 1.5 mL Ehrlich^’s reagent and 1.5 mL absolute ethyl alcohol were added into the tube for further incubation for 1 hour at 60 °C. The OD520 was determined with BioMet 3S UV-Visible Spectrophotometer (Thermo Scientific^TM, Waltham, MA, USA). N-acetyl-D-glucosamine was used to establish a standard curve for the quantification of chitin levels. All reactions were performed in triplicate.

[8] = system: chitin in WT yeast cells; experiment: CFW staining of chitin, fluorescence microscopy; assay type: cell-based, S. cerevisiae; details: 12.5 or 25 μg/mL, 3 or 5 hours, vs DMSO control
Procedure: as §1

| Compound | growth inhibition [1] | MIC ([2]; Saccharomyces cerevisiae, read-out: MIC, WT) | chitin level by CFW staining [3] | relative abundance of Chs3 compared with cells treated with DMSO [4] | relative abundance of Chs1 compared with cells treated with DMSO [5] | relative abundance of Chs2 compared with cells treated with DMSO [6] | relative chitin content compared to cells treated with DMSO ([7]; 12.5 μg/mL) | relative chitin content compared to cells treated with DMSO ([7]; 25 μg/mL) | CFW fluorescent signal around the cell wall and at the primary septum [8] | MIC, WT [2] |
| --- | --- | --- | --- | --- | --- | --- | --- | --- | --- | --- |
| COc1cc(OC)cc(C(=O)N(CCn2ccnc2)c2nc3ccc(OC)cc3s2)c1 [IMB-F4, N-(2-(1H-imidazol-1-yl)ethyl)-3,5-dimethoxy-N-(6-methoxybenzo[d]thiazol-2-yl)benzamide] | did not inhibit the growth | > 100 µg/mL | decreased chitin level | remained similar | remained similar | remained similar | 46.09 ± 8.01% | 27 ± 5.33% | weaker fluorescent signal | – |
| N-(2-(diethylamino) ethyl)-N-(7-hydroxy-4-methoxybenzo[d]thiazol -2-yl)-2-oxo-2H-chromene-3-carboxamide [IMB-D10] | did not inhibit the growth | – | decreased chitin level | 18.33 ± 1.89% | 22 ± 5.10% | 21.33 ± 6.18% | did not reduce the chitin level significantly | 47.61 ± 6.79% | weaker fluorescent signal | 50 µg/mL |

— paper PMC6749524, “Identification of New Antifungal Agents Targeting Chitin Synthesis by a Chemical-Genetic Method” (Molecules, 2019)
